# Results taken from patent publication EP4574175A1, “PRODRUG FOR ANTI-AGING RELATED DISEASES AND USE METHOD THEREFOR” (BEIJING SUNCELL BIO-MEDICAL CO., LTD., priority 2022, dated 2024).
# Where two headings read alike, the source gives them in different places.
# Experiments:
# in vitro [1] = conditions: monkey
# in vitro [2] = conditions: mouse
# Experimental: […] Samples were taken and analyzed at time points 0, 15, 30, 45 and 60 minutes during the incubation. The reaction was terminated by adding an amount of acetonitrile solution containing the internal standard. […] The residual percentage, half-life, intrinsic clearance, amplified clearance, hepatic clearance and hepatic extraction ratio were determined. The entire experiment was performed in triplicate. All data calculations were performed by Microsoft Excel software. Peak areas were detected by extracting the ionic spectrum. The in vitro half-life (t1/2) of the parent compound was detected by fitting the natural logarithm of the percentage elimination of the parent compound linearly to time.
# The in vitro intrinsic clearance (in µL/min/mg protein) was calculated using the following equation: in vitro CLint = kV/N
# The amplified clearance (in mL/min/kg) was calculated using the following equation: Amplified CLint = kV/N × the amplification factor [formula]
# The hepatic clearance (in mL/min/kg) was calculated using the following equation: The predicted hepatic CLH = (Q×Fu/RB×theamplifiedCLint)/([…]) [formula] • V = the incubation volume per well (0.2 mL); • N = the total amount of protein (mg) • Q = the hepatic blood flow (mL/min/kg) • Fu = the plasma free rate (assumed to be 1) • RB = the whole blood partition coefficient (assumed to be 1)
# The hepatic […] was calculated using the following equation: The hepatic extraction ratio(ER) = (thepredictedhepaticCLH)/Q [formula]
# [3] = human, 1 µM
# [4] = dog, 1 µM
# in vitro [5] = conditions: dog
# [6] = monkey, 1 µM
# in vitro [7] = conditions: rat
# [8] = rat, 1 µM
# in vitro [9] = conditions: human
compound,measurement,setting,value
O=c1ccc2ccc(O)cc2o1 [7-hydroxycoumarin],CLint scaled at 1 µM,in vitro [1]; The predicted intrinsic hepatic clearance Cl int,42.1 mL/min/kg
same,half-life at 1 µM,in vitro [1]; microsomes,1.72 min
same,microsomal CLint at 1 µM,in vitro [1]; microsomes,806 µL/min/mg
same,CLint scaled at 1 µM,"in vitro [1]; microsomes, The amplified intrinsic clearance Cl int",1210 mL/min/kg
same,CLint scaled at 1 µM,in vitro [2],87.8 mL/min/kg
same,The hepatic extraction ratio (E),in vitro [2]; 1 µM,0.98
same,CLint scaled at 1 µM,in vitro [2]; microsomes,3630 mL/min/kg
same,half-life at 1 µM,in vitro [2]; microsomes,1.68 min
same,microsomal CLint at 1 µM,in vitro [2]; microsomes,824 µL/min/mg
same,The hepatic extraction ratio (E),[3],0.97
same,The hepatic extraction ratio (E),[4],0.99
same,CLint scaled at 1 µM,in vitro [5],30.4 mL/min/kg
same,CLint scaled at 1 µM,in vitro [5]; microsomes,2050 mL/min/kg
same,half-life at 1 µM,in vitro [5]; microsomes,1.68 min
same,microsomal CLint at 1 µM,in vitro [5]; microsomes,824 µL/min/mg
same,The hepatic extraction ratio (E),[6],0.97
same,CLint scaled at 1 µM,in vitro [7],52.3 mL/min/kg
same,CLint scaled at 1 µM,in vitro [7]; microsomes,1010 mL/min/kg
same,half-life at 1 µM,in vitro [7]; microsomes,2.47 min
same,microsomal CLint at 1 µM,in vitro [7]; microsomes,562 µL/min/mg
same,The hepatic extraction ratio (E),[8],0.95
same,CLint scaled at 1 µM,in vitro [9],20.2 mL/min/kg
same,CLint scaled at 1 µM,in vitro [9]; microsomes,774 mL/min/kg
same,half-life at 1 µM,in vitro [9]; microsomes,2.25 min
same,microsomal CLint at 1 µM,in vitro [9]; microsomes,617 µL/min/mg
